The target in one data set is T1, Histone deacetylase 8 (Homo sapiens, UniProt Q9BY41).
T1 sequence (Q9BY41 whole entry): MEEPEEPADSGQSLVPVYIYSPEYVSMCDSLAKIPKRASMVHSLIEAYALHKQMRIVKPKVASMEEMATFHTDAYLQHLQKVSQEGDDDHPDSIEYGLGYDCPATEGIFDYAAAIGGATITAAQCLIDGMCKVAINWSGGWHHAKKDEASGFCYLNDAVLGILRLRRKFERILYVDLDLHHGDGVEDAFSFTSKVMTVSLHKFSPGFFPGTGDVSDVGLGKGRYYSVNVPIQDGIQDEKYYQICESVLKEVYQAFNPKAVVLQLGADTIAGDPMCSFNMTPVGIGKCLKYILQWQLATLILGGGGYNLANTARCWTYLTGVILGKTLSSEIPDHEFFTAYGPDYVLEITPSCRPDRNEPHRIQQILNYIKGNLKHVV
The experiment in a line: Inhibition of human HDAC8 (379 to 382 residues) using RHKKAcKAc-AMC fluorogenic peptide as substrate by fluorescence assay.

Data set [1] deals with GL26. The experiment in a line: Induction of apoptosis in mouse GL26 cells assessed as proteolytic cleavage of PARP1 incubated for 48 hrs by Western blot analysis. It counts as functional, cell-based. The following applies: dose 1.25-5 µM, DDE = dose-dependent effect.
The next data set deals with Mus musculus. The experiment in a line: In vivo inhibition of MAO-A in mouse xenografted with mouse GL26 assessed as decrease in MAO activity in tumor at 50 mg/kg by radiometric analysis. The class given is functional.
Data set [2] has as its system GL26. The experiment in a line: Inhibition of HDAC in mouse GL26 cells assessed as increase in alpha tubulin level at 0.62 to 1.25 uM incubated for 48 hrs by Western blot analysis. The class given is cell-based. Particulars: dose 0.62-1.25 µM, DDE = dose-dependent effect.
Data set [3] concerns GL26. The experiment in a line: Inhibition of HDAC in mouse GL26 cells assessed as increase in histone H3 acetylation at 0.62 to 1.25 uM incubated for 48 hrs by Western blot analysis. It counts as cell-based. Particulars: dose 0.62-1.25 µM, DDE = dose-dependent effect.
Data set [4] in a line: Toxicity in mouse bearing intracranial tumor assessed as median survival time at 50 mg/kg, ip for 10 days (Rvb= 13.8 days). The class given is organism-based. Particulars: in vivo, 240 h, time 10 day.
The nature of data set [5]: Toxicity in mouse bearing intracranial tumor assessed as median survival time at 25 mg/kg, ip for 10 days (Rvb= 13.8 days). It counts as organism-based. Particulars: in vivo, 240 h, time 10 day.
The target in data set [6] is Lysine-specific histone demethylase 1A (Homo sapiens, UniProt O60341). The data set can be described thus: Inhibition of human LSD1 assessed as demethylase activity of LSD1 using Histone H3(1-21)K4me2 peptide as substrate incubated for 30 mins followed by substrate addition by amplex red dye based HRP-coupled assay.
Data set [7] can be described thus: Toxicity in mouse bearing intracranial tumor assessed as last day of survival at 25 mg/kg,ip for 10 days (Rvb=16 days). It counts as organism-based. Particulars: in vivo, 240 h, time 10 day.

Active and inactive are the calls of the source. No cut-off for these calls is given here.

On Histone deacetylase 8, `C#CCN(C)CCCOc1ccc(NC(=O)CCCCCCC(=O)NO)cc1Cl` gave an IC50 of 330 nM. The Activity result in the data set on GL26 [1], in the data set with GL26 [2] and with GL26 [3] was “Dde” each time. In addition, the result in the data set with Mus musculus was Active. Besides, the Survival in data set [4] was 14.4 days.

`C#CCN(C)CCCOc1cc(NCc2ccc(/C=C/C(=O)NO)cc2)ccc1Cl` registered a concentration for half-maximal inhibition (IC50) on Histone deacetylase 8 of 80 nM. In addition, the outcome with Mus musculus was Active. Moreover, the Survival in data set [5] amounted to 16.4 days; in [7], 21 days. Further, the EC50 in [6] amounted to 10000 nM.
